# Measured values from patent US10975030B2, “Grp94 selective inhibitors and uses thereof” (University of Kansas, priority 2016, dated 2021).
# Read-outs that look alike come from different tables or passages of the source.
# Experiments:
# MDA-MB-231 cells = experiment: Wound healing scratch assay, MDA-MB-231; assay type: cell-based; details: 10 μM ('at 10 μM and 5 μM respectively'), 0, 16, 24 h, FIG. 3A
# Description: (§1) Chemicals and Cell culture. Compounds were dissolved in DMSO and stored at −20° C. until use. The PC3-MM2 and MDA-MB-231 cells were maintained in DMEM (Cellgro) media supplemented with streptomycin (500 μg/mL), penicillin (100 units/mL) and 10% FBS at 37° C. and 5% CO2.
# (§2) Wound Healing Scratch Assay. The cells were seeded in a 24-well plate in complete media and allowed to form a monolayer. After monolayer formation, a scratch was introduced with a sterile 0.1-10 μl pipet tip. The media was replaced with fresh media in the absence or presence of the indicated drug concentrations. Photomicrographs were taken at different time points with an Olympus IX71 microscope using a 10x air lens and CellSans Dimensions software. The images were processed with Image J software.
# [1] = target: Grp94 (recombinant cGrp94) (Canis lupus familiaris (Dog) (Canis familiaris), UniProt P41148); experiment: Fluorescence polarization (FP) assay, cGrp94 with FITC-GDA; assay type: binding
# Chain of Grp94 (recombinant cGrp94) (P41148 22-804): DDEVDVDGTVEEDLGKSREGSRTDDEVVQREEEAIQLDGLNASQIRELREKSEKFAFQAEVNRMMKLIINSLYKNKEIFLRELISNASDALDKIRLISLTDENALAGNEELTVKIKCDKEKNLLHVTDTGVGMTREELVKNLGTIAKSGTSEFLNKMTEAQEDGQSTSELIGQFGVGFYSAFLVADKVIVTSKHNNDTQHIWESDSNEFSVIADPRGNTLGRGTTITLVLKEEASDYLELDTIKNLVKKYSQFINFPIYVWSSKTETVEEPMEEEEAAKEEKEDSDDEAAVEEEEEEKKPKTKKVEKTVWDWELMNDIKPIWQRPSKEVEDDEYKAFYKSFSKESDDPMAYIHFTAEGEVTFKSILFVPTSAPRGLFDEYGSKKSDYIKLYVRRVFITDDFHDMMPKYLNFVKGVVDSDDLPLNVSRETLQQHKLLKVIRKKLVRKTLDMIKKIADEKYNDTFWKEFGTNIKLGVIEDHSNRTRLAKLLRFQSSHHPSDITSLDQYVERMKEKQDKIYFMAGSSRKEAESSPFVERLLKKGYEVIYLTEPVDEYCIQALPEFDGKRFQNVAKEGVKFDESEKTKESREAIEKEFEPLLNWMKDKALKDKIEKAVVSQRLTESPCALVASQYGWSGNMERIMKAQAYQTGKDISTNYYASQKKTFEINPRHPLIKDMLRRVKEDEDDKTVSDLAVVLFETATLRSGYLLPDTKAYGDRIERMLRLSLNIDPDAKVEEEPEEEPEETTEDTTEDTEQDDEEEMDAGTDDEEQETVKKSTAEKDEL
# Description: (§3) Fluorescence Polarization. Assay buffer (25 μL, 20 mM HEPES pH 7.3, 50 mM KCl, 5 mM MgCl2, 1 mM DTT, 20 mM Na2MoO4, 0.01% NP-40, and 0.5 mg/mL BGG) was added to 96-well plate (black well, black bottom) followed by the desired compound at the indicated final concentrations in DMSO (1% DMSO final concentration). […] Plates were incubated with rocking for 5 h at 4° C. […] Percent FITC-GDA bound was determined by using the DMSO millipolarization unit (mP) as the 100% bound value and the 0% for FITC-GDA. Kd values were calculated from separate experiments performed in triplicate using GraphPad Prism.
# PC-3 MM-2 cells = experiment: Wound healing scratch assay, PC-3 MM-2; assay type: cell-based; details: 5 μM ('at 10 μM and 5 μM respectively'), 0, 16, 24 h, FIG. 3B
# Description: as §1, §2
# [2] = Anti-proliferation assay (MTS/PMS), MDA-MB-231; assay type: cell-based; details: human, MDA-MB-231 cells, MDA-MB-231, 25 μM
# Description: (§4) Anti-proliferation Assays. Cells were seeded (2000/well, 100 μL) in 96-well plates and incubated overnight. Following incubation, compounds with varying concentrations in DMSO (1% DMSO final concentration) were added and cells were returned to the incubator for 72 h. After 72 h, the cell viability was determined using an MTS/PMS cell proliferation kit (Promega) per the manufacturer's instructions. Absorption value from 1% DMSO wells were used as 100% proliferation, and values were adjusted accordingly.
# Hsp90α = Hsp90α (Homo sapiens (Human), UniProt P07900); experiment: Fluorescence polarization (FP) assay, Hsp90α; assay type: binding
# Description: as §3
# PC3-MM2 cells = experiment: Immunofluorescence / confocal microscopy analysis of PC3-MM2 cells; assay type: cell-based; details: FIG. 2B
# Description: as §1
# (§5) Antibodies. The following antibodies were used for western blotting and/or immunofluorescence: goat anti-integrin α L #sc6609, rabbit anti-SYNE2 #sc99066, and rabbit anti-actin #sc1616-R (Santa Cruz Biotech-nology, Santa Cruz, Calif.); rabbit anti-Integrin α 2 #ab181548, rabbit anti-VAMP2 #ab3347 (Abcam, Cambridge, Mass.); Phalloidin 647 #A22287 (Invitrogen, Carlsbad Calif.); rabbit anti-Rab10 #4262S (Cell Signaling Technology, Danvers, Mass.).
# Immunofluorescence Analysis. For cell imaging, 1 μm-Slide 8 well ibidiTreat IBIDI glass slides were used. PC3-MM2 cells were fixed with freshly made 4% (w/w) paraformaldehyde in PBS for 15 min, permeabilized with 0.1% (w/w) Tween 20 in PBS for 5 min and quenched with 0.1% (w/w) sodium borohydride for 5 min. The sections were blocked with 3% (w/w) BSA in PBS for 1 h and incubated with the primary antibody at a 1:100 concentration in 1% BSA in PBS overnight, prior to incubation with secondary antibody conjugated with Alexa Fluor 568 for 3 h. The sections were counterstained with DAPI and/or with Phalloidin to visualize DNA and filamentous actin (F-actin), respectively. The wells were washed three times with PBS after each step.
# Confocal images were acquired using a custom epifluorescent/confocal microscope composed of the following components: an Olympus IX81 inverted spinning disc confocal microscope base (Olympus America, Center Valley, Pa.), a Prior microscope stage for automated image acquisition (Prior Scientific, Rockland, Mass.), an Olympus 60X oil Immersion objective for confocal images (Olympus) and a Hamamatsu Electron Multiplying Charge-Coupled Device (EMCCD) camera (Hamamatsu, Hamamatsu, Shizuoka Prefecture, Japan). Images were captured using the SlideBook acquisition and analysis software, (Intelligent Imaging Innovations (3i), Denver, Colo.).
# Images were collected with 8-10 image stacks with a 0.3 micron step size through the cells. Images were processed using Image J software (NIH).
# [3] = Anti-proliferation assay (MTS/PMS), PC-3 MM-2; assay type: cell-based; details: human, PC-3 MM-2 cells, PC-3 MM-2, 25 μM
# Description: as §4
# [4] = tested on: integrin α2, integrin αL, Syne2, VAMP2, Rab10 in PC3-MM2 cells; experiment: Cell fractionation and Western blot analysis of PC3-MM2 cells; assay type: cell-based; details: 30 μM, 24 h, cytoplasmic (Cyto) fraction, compared to DMSO, FIG. 2A
# Description: as §1, §5
# Cell fractionation and Western Blot Analysis. […] After sedimenting the cell debris, the protein concentration of each lysate was measured in quadruplicate using the BCA protein assay and bovine serum albumin as the standard. The coefficient of variation was determined for each set of quadruplicate measures and if the variability exceeded 5%, the protein assay was repeated for that set of samples. […]
# [5] = apparent Kd, cGrp94 and FITC-GDA, triplicates, ± SEM, read-out: Kd Grp94
"Kd [1, 5]",Kd (Hsp90α),Compound,other results
> 25 µM,> 100 µM,"NC(=O)c1ccc(-n2cccc2Cc2c(F)cccc2F)cc1N[C@H]1CC[C@H](O)CC1 [Compound 8n, 4-(2-(2,6-difluorobenzyl)-1H-pyrrol-1-yl)-2-(((1r,4r)-4hydroxycyclohexyl)amino)benzamide]",–
14 ± 0.27 µM,> 100 µM,"NC(=O)c1ccc(-n2cccc2Cc2ccccn2)cc1N[C@H]1CC[C@H](O)CC1 [Compound 8o, 2-(((1r,4r)-4-hydroxycyclohexyl)amino)-4-(2-(pyridin-2-ylmethyl)-1H-pyrrol-1-yl)benzamide]",–
5.5 ± 0.15 µM,> 100 µM,"NC(=O)c1ccc(-n2cccc2Cc2cccnc2)cc1N[C@H]1CC[C@H](O)CC1 [Compound 8p, 2-(((1r,4r)-4-hydroxycyclohexyl)amino)-4-(2-(pyridin-3-ylmethyl)-1H-pyrrol-1-yl) benzamide]",–
13.2 ± 0.12 µM,> 100 µM,"NC(=O)c1ccc(-n2cccc2Cc2ccncc2)cc1N[C@H]1CC[C@H](O)CC1 [Compound 8q, 2-(((1r,4r)-4-hydroxycyclohexyl)amino)-4-(2-(pyridin-4-ylmethyl)-1H-pyrrol-1-yl)benzamide]",–
> 25 µM,> 100 µM,"NC(=O)c1ccc(-n2cccc2CCc2ccccc2)cc1N[C@H]1CC[C@H](O)CC1 [Compound 9, 2-(((1r,4r)-4-hydroxycyclohexyl)amino)-4-(2-phenethyl-1H-pyrrol-1-yl)benzamide]",–

# More lines, now with the values behind:
Compound,"Kd [1, 5]",Kd (Hsp90α),other results
"NC(=O)c1ccc(-n2cccc2Cc2ccccc2F)cc1N[C@H]1CC[C@H](O)CC1 [Compound 8e, 4-(2-(2-fluorobenzyl)-1H-pyrrol-1-yl)-2-(((1r,4r)-4-hydroxycyclohexyl)amino)benzamide]",0.72 ± 0.14 µM,> 100 µM,"migration of MDA-MB-231 cells (MDA-MB-231 cells): inhibited migration; Kd ([1]; read-out: apparent Kd towards Grp94): ~0.724 µM; migration of PC-3 MM-2 cells (PC-3 MM-2 cells): inhibited migration; viability at 72 h, 25 µM [2]: > 95%; F-actin localization (PC3-MM2 cells; confocal microscopy, versus DMSO treated cells): formed sporadic patches in the cytoplasm; integrin α2 localization (PC3-MM2 cells; immunofluorescence, versus untreated cells): localized as patches in the cytoplasm; viability at 72 h, 25 µM [3]: > 95%; levels of integrin α2, integrin αL, Syne2, VAMP2, and Rab10 [4]: reduced levels"
"NC(=O)c1ccc(-n2cccc2Cc2cccc(F)c2)cc1N[C@H]1CC[C@H](O)CC1 [Compound 8f, 4-(2-(3-fluorobenzyl)-1H-pyrrol-1-yl)-2-(((1r,4r)-4-hydroxycyclohexyl)amino)benzamide]",4.53 ± 0.12 µM,> 100 µM,–
"NC(=O)c1ccc(-n2cccc2Cc2ccc(F)cc2)cc1N[C@H]1CC[C@H](O)CC1 [Compound 8g, 4-(2-(4-fluorobenzyl)-1H-pyrrol-1-yl)-2-(((1r,4r)-4-hydroxycyclohexyl)amino)benzamide]",8.35 ± 0.14 µM,> 100 µM,–
"NC(=O)c1ccc(-n2cccc2Cc2ccccc2Br)cc1N[C@H]1CC[C@H](O)CC1 [Compound 8h, 4-(2-(2-bromobenzyl)-1H-pyrrol-1-yl)-2-(((1r,4r)-4-hydroxycyclohexyl)amino)benzamide]",12.9 ± 0.11 µM,> 100 µM,–
"Cc1ccccc1Cc1cccn1-c1ccc(C(N)=O)c(N[C@H]2CC[C@H](O)CC2)c1 [Compound 8i, 2-(((1r,4r)-4-hydroxycyclohexyl)amino)-4-(2-(2-methylbenzyl)-1H-pyrrol-1-yl)benzamide]",4.2 ± 0.23 µM,> 100 µM,–
"NC(=O)c1ccc(-n2cccc2Cc2cccc(O)c2)cc1N[C@H]1CC[C@H](O)CC1 [Compound 8k, 4-(2-(3-hydroxybenzyl)-1H-pyrrol-1-yl)-2-(((1r,4r)-4-hydroxycyclohexyl)amino)benzamide]",> 25 µM,> 100 µM,–
"COc1ccccc1Cc1cccn1-c1ccc(C(N)=O)c(N[C@H]2CC[C@H](O)CC2)c1 [Compound 8m, 2-(((1r,4r)-4-hydroxycyclohexyl)amino)-4-(2-(2-methoxybenzyl)-1H-pyrrol-1-yl)benzamide]",1.15 µM,> 100 µM,–
